Structures can show the parent of a compound that is named as a salt.
Legend:
[1] = tested on: mongrel dogs (arterial blood pressure); assay: hypotensive activity in anesthetized mongrel dogs; format: in vivo, dog; conditions: average of 3 tests
Experimental: (2) Determination of the hypotensive activity:
The hypotensive activity was determined in mongrel dogs of both sexes (body weight between 19 and 26 kg) under chloralose/urethane (54+ 270 mgm/kg i.v.) and nembutal (10 mgm/kg i.v.) anesthesia. After tracheotomy, the animals were attached to a Harvard artificial respirator using normal air. The arterial blood pressure was measured in the arteria femoralis by a Statham pressure transducer P 23 Dc and registered on a Grass polygraph. The compound under investigation was administered in aqueous solution by intravenous injection into the vena saphena.

[2] = tested on: isolated, spontaneously beating auricles of the guinea pig; assay: positive inotropic (cardiotonic) activity on isolated auricles; format: cell-based; conditions: Cavia porcellus, 10^-5 gm/ml, 30° C., average of at least 5 auricles, read-out: Increase in the force of contraction in %
Experimental: 3. Determination of the positive inotropic (cardiotonic) activity
The positive inotropic activity was determined as the strengthening effect upon the force of contraction of isolated, spontaneously beating auricles of the guinea pig. Freshly isolated auricles were put into a bath of 100 ml of a tyrode solution at a temperature of 30° C. The tyrode solution was infused with carbogen (95% of O2 and 5% of CO2). The spontaneous contractions of the auricles were registered isometrically with a Statham-Force-Displacement-transducer FT 03 C on a Grass polygraph. The auricles were pre-stretched with 1 gm. After an equilibration period of 20-30 minutes the test compound was added at a concentration of 10^-^5 gm/ml.

[3] = tested on: thrombocyte aggregation in platelet-rich plasma of healthy human donors; assay: thrombocyte (platelet) aggregation inhibiting activity, method of Born and Cross, collagen-induced; format: cell-based; conditions: 10^-4 mol/l, optical density, read-out: Inhibition in % after addition of 10^-4 mol/l, O.D.
Experimental: (1) Determination of thrombocyte aggregation inhibiting activity by the method of Born and Cross [see J. Physiol. 170, 397 (1964)]:
The platelet aggregation inhibiting activity was determined in the platelet-rich plasma of healthy human donors. The rate of decline of the optical density of the platelet suspension was measured and recorded photometrically after the addition of commercial collagen containing 1 mgm of collagen fibrils per ml. From the angle of inclination of the density curve, the rate of aggregation was estimated (Vmax). The optical density was taken as the point on the curve where most light was transmitted (O.D.). To provoke maximum aggregation about 0.01 ml of the collagen solution was added to 1 ml of platelet-rich plasma.

Row | SMILES | Decrease in blood pressure (figure after the slash) ([1]; 1.0 mgm/kg i.v.) [mm Hg] | Decrease in blood pressure (figure before the slash) ([1]; 1.0 mgm/kg i.v.) [mm Hg] | activation at 10 µg/mL [2] [%] | inhibition at 100 µM [3] [%] | further results
1 | COc1ccc(-c2nc3ccc(C4=NNC(=O)CC4)cc3[nH]2)c(OC)c1 [C, 2-(o,p-Dimethoxy-phenyl)-5(6)-(3'-oxo-4',5'-dihydro-2'H-6'-pyridazinyl)-benzimidazole] | 44 | 33 | 12 | – | Decrease in blood pressure (figure after the slash) ([1]; 0.25 mgm/kg i.v.): 44 mm Hg; Decrease in blood pressure (figure before the slash) ([1]; 0.25 mgm/kg i.v.): 17 mm Hg
2 | Cc1nc2ccc(C3=NN(C)C(=O)CC3)cc2[nH]1 [G, 2-Methyl-5(6)-(2'-methyl-3'-oxo-4',5'-dihydro-2'H-6'-pyridazinyl)-benzimidazole hydrochloride] | – | – | 13 | – | –
3 | Cc1nc2ccc(C3=NNC(=O)CC3)cc2[nH]1 [Compound A, 2-Methyl-5(6)-(3'-oxo-4',5'-dihydro-2'H-6'-pyridazinyl)-benzimidazole hydrochloride] | 38 | 26 | 30 | 100 | Decrease in blood pressure (figure after the slash) ([1]; 0.25 mgm/kg i.v.): 9 mm Hg; Decrease in blood pressure (figure before the slash) ([1]; 0.25 mgm/kg i.v.): 7 mm Hg
4 | COc1ccc(-c2nc3ccc(-c4ccc(=O)[nH]n4)cc3[nH]2)cc1 [K, 2-(p-Methoxy-phenyl)-5(6)-(3'-oxo-2'H-6'-pyridazinyl)-benzimidazole methanesulfonate] | – | – | 33 | – | –
5 | O=C1CCC(c2ccc3nc(C(F)(F)F)[nH]c3c2)=NN1 [F, 2-trifluoromethyl-5(6)-(3'-oxo-4',5'-dihydro-2'H-6'-pyridazinyl)-benzimidazole] | – | – | – | 100 | –
6 | O=C1CCC(c2ccc3nc(-c4ccccc4F)[nH]c3c2)=NN1 [E, 2-(o-Fluoro-phenyl)-5(6)-(3'-oxo-4',5'-dihydro-2'H-6'-pyridazinyl)-benzimidazole hydrochloride] | – | – | 15 | – | –
7 | Cc1nc2ccc(-c3ccc(N4CCOCC4)nn3)cc2[nH]1 [D, 2-Methyl-5(6)-(3'-morpholino-6'-pyridazinyl)-benzimidazole] | – | – | – | 89 | –
8 | O=C1CCC(c2ccc3nc[nH]c3c2)=NN1 [H, 5(6)-(3'-oxo-4',5'-dihydro-2'H-6'-pyridazinyl)-benzimidazole] | – | – | – | 100 | –
9 | COc1ccc(-c2nc3ccc(C4=NNC(=O)CC4)cc3[nH]2)cc1 [Compound I, 2-(p-Methoxy-phenyl)-5(6)-(3'-oxo-4',5'-dihydro-2'H-6'-pyridazinyl)-benzimidazole] | – | – | – | 100 | –
10 | Cc1nc2ccc(-c3ccc(=O)[nH]n3)cc2[nH]1 [B, 2-Methyl-5(6)-(3'-oxo-2'H-6'-pyridazinyl)-benzimidazole hydrochloride] | 32 | 33 | 20 | 100 | Decrease in blood pressure (figure after the slash) ([1]; 0.5 mgm/kg i.v.): 25 mm Hg; Decrease in blood pressure (figure before the slash) ([1]; 0.5 mgm/kg i.v.): 18 mm Hg
